Results published in patent publication US20200291018A1, “TAM KINASE INHIBITORS” (SYROS PHARMACEUTICALS, INC., priority 2017, published 2020).

Experiments:
MERTK = target: T1, MERTK (Homo sapiens, UniProt Q12866); experiment: TR-FRET kinase activity assay, MERTK; assay type: biochemical; conditions: for IC50: TR-FRET activity assay, ATP at Km, 60 minutes, read-out: Mer IC50; for Mer/Flt3 ratio (FLT3 IC50/Mer IC50): ratio calculated as FLT3 IC50/Mer IC50
T1 sequence (Q12866 21-999): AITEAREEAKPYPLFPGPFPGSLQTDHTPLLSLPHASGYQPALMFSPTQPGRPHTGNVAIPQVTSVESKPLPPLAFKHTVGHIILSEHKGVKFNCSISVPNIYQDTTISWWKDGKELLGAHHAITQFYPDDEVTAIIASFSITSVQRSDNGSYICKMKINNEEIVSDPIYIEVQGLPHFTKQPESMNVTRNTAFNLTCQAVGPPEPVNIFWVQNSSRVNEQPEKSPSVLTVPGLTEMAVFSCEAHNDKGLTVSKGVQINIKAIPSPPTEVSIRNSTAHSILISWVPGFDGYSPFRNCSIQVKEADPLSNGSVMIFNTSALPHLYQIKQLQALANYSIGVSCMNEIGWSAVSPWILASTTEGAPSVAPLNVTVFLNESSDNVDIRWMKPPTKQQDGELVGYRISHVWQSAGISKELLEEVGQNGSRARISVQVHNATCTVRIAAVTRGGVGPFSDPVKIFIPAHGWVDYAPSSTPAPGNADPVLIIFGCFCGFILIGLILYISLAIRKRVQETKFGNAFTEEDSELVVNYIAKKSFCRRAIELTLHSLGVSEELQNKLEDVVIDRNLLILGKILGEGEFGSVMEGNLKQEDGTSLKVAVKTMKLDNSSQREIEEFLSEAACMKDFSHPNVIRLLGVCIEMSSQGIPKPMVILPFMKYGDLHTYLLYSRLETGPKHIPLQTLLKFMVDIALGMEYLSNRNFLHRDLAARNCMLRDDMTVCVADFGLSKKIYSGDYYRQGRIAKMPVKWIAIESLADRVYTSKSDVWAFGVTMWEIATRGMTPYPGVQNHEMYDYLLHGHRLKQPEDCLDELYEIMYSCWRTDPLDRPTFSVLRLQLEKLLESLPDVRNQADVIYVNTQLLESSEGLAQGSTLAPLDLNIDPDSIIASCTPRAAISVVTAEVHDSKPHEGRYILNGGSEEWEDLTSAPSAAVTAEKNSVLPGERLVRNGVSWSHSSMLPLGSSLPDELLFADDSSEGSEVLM
Outline: (§1)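 Each kinase phosphorylates a fluorescently labeled peptide on tyrosine in the presence of compound, with ATP at its Km, for 60 min at RT in HEPES pH 7.5 buffer with MgCl2, EGTA, Brij 35 and DTT. Product is detected by TR-FRET with a Europium-labeled phospho-specific antibody; IC50 values follow.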

AXL = target: T2, AXL (Homo sapiens, UniProt P30530); experiment: TR-FRET kinase activity assay, AXL; assay type: biochemical; conditions: ATP at Km, 60 minutes
T2 sequence (P30530 26-894): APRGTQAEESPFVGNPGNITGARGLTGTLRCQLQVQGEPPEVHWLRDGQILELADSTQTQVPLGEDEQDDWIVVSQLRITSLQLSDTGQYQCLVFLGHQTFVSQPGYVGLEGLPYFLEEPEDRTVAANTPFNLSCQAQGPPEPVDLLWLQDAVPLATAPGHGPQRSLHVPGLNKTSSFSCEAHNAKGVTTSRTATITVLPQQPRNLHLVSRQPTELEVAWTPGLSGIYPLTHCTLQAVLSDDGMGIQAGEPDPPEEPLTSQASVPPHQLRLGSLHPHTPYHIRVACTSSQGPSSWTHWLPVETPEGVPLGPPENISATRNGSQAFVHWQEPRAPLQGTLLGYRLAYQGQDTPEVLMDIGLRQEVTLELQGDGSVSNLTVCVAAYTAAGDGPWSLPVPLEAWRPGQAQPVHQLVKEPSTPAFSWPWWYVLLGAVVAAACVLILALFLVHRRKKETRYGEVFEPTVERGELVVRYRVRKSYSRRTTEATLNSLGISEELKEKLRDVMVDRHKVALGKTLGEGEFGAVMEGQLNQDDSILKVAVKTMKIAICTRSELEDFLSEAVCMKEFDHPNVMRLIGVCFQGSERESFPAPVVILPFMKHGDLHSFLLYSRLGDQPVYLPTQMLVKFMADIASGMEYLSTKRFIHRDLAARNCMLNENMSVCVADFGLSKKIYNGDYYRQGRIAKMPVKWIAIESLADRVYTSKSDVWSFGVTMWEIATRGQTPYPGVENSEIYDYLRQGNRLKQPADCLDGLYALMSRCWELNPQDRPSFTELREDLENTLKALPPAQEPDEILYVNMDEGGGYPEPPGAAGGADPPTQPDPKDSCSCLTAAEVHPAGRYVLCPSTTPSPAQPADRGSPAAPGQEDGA
Outline: as §1

Question: What does the source list for `O=C(O)[C@H]1CC[C@H](Nc2ncc3c(OC4CCOCC4)ncc([C@H]4CC[C@H](O)CC4)c3n2)CC1` [Compound 410]?
Answer: IC50 (MERTK): ≤ 100 nM; Mer/Flt3 ratio (FLT3 IC50/Mer IC50) (MERTK): +++ (a ratio of >100); IC50 (AXL): 1000 to 10000 nM

Question: Which IC50 (MERTK) does the source give for `C[C@H](Nc1ncc2c(O[C@H]3C[C@@H](O)C3)ncc([C@H]3CC[C@H](O)CC3)c2n1)C(F)F` [Compound 411] here?
Answer: ≤ 100 nM

Question: What about the “Mer/Flt3 ratio (FLT3 IC50/Mer IC50)” value (MERTK) of the same compound?
Answer: +++ (a ratio of >100)

Question: And the IC50 (AXL)?
Answer: 100 to 1000 nM

Question: For `C[C@@H](CC(F)(F)F)Nc1ncc2c(O[C@@H]3C[C@H]4CC[C@@H](C3)N4C[C@H]3CCCO3)ncc([C@H]3CC[C@H](O)CC3)c2n1` [Compound 412], which IC50 (MERTK) is on record?
Answer: ≤ 100 nM

Question: What about the “Mer/Flt3 ratio (FLT3 IC50/Mer IC50)” value (MERTK) of the same compound?
Answer: +++ (a ratio of >100)

Question: And the IC50 (AXL)?
Answer: ≤ 100 nM

Question: With `C[C@@H](CC(F)(F)F)Nc1ncc2c(O[C@@H]3C[C@H]4CC[C@@H](C3)N4[C@H]3CCOC3)ncc([C@H]3CC[C@H](O)CC3)c2n1` [Compound 413] as the compound, how does the IC50 (MERTK) read?
Answer: ≤ 100 nM

Question: And the “Mer/Flt3 ratio (FLT3 IC50/Mer IC50)” value (MERTK)?
Answer: +++ (a ratio of >100)

Question: And the IC50 (AXL)?
Answer: ≤ 100 nM

Question: Which results are given for `C[C@@H](CC(F)(F)F)Nc1ncc2c(O[C@@H]3C[C@H]4CC[C@@H](C3)N4C[C@H]3CCOC3)ncc([C@H]3CC[C@H](O)CC3)c2n1` [Compound 414]?
Answer: IC50 (MERTK): ≤ 100 nM; Mer/Flt3 ratio (FLT3 IC50/Mer IC50) (MERTK): +++ (a ratio of >100); IC50 (AXL): ≤ 100 nM

Question: For `C[C@@H](CC(F)(F)F)Nc1ncc2c(O[C@@H]3C[C@H]4CC[C@@H](C3)N4[C@@H]3CCOC3)ncc([C@H]3CC[C@H](O)CC3)c2n1` [Compound 415], which IC50 (MERTK) is on record?
Answer: ≤ 100 nM

Question: And the “Mer/Flt3 ratio (FLT3 IC50/Mer IC50)” value (MERTK)?
Answer: +++ (a ratio of >100)

Question: And the IC50 (AXL)?
Answer: ≤ 100 nM

Question: How did the IC50 (MERTK) turn out when `C[C@@H](CC(F)(F)F)Nc1ncc2c(O[C@@H]3C[C@H]4CC[C@@H](C3)N4C[C@@H]3CCOC3)ncc([C@H]3CC[C@H](O)CC3)c2n1` [Compound 416] was run?
Answer: ≤ 100 nM

Question: What about the “Mer/Flt3 ratio (FLT3 IC50/Mer IC50)” value (MERTK) of the same compound?
Answer: +++ (a ratio of >100)

Question: And the IC50 (AXL)?
Answer: ≤ 100 nM

Question: `CO[C@H]1C[C@@H]1Nc1ncc2c(O[C@H]3C[C@@H](O)C3)ncc([C@H]3CC[C@H](O)CC3)c2n1` [Compound 417] was tested. Which IC50 (MERTK) did it give?
Answer: ≤ 100 nM

Question: What about the “Mer/Flt3 ratio (FLT3 IC50/Mer IC50)” value (MERTK) of the same compound?
Answer: +++ (a ratio of >100)

Question: What about the IC50 (AXL) of the same compound?
Answer: ≤ 100 nM

Question: How did the IC50 (MERTK) turn out when `C[C@@H](CC(F)(F)F)Nc1ncc2c(OC3CC(C)(C)N(C[C@@H]4CCCO4)C(C)(C)C3)ncc([C@H]3CC[C@H](O)CC3)c2n1` [Compound 418] was run?
Answer: ≤ 100 nM

Question: And the “Mer/Flt3 ratio (FLT3 IC50/Mer IC50)” value (MERTK)?
Answer: +++ (a ratio of >100)

Question: And the IC50 (AXL)?
Answer: ≤ 100 nM

Question: Which IC50 (MERTK) does the source give for `COC[C@H](C)Nc1ncc2c(O[C@H]3C[C@H](C(=O)N4CCN(C)CC4)C3)ncc([C@H]3CC[C@H](O)CC3)c2n1` [Compound 419] here?
Answer: ≤ 100 nM

Question: And the “Mer/Flt3 ratio (FLT3 IC50/Mer IC50)” value (MERTK)?
Answer: +++ (a ratio of >100)

Question: What about the IC50 (AXL) of the same compound?
Answer: 100 to 1000 nM

Question: `C[C@@H](CC(F)(F)F)Nc1ncc2c(O[C@H]3C[C@H](CN4CCOCC4)C3)ncc([C@H]3CC[C@H](O)CC3)c2n1` [Compound 420] was tested. Which IC50 (MERTK) did it give?
Answer: ≤ 100 nM

Question: And the “Mer/Flt3 ratio (FLT3 IC50/Mer IC50)” value (MERTK)?
Answer: +++ (a ratio of >100)

Question: What about the IC50 (AXL) of the same compound?
Answer: ≤ 100 nM

Question: With `C[C@@H](CC(F)(F)F)Nc1ncc2c(O[C@@H]3C[C@H]4CC[C@@H](C3)N4C[C@@H]3CCCO3)ncc([C@H]3CC[C@H](O)CC3)c2n1` [Compound 421] as the compound, how does the IC50 (MERTK) read?
Answer: ≤ 100 nM

Question: What about the “Mer/Flt3 ratio (FLT3 IC50/Mer IC50)” value (MERTK) of the same compound?
Answer: +++ (a ratio of >100)

Question: What about the IC50 (AXL) of the same compound?
Answer: ≤ 100 nM

Question: Which IC50 (MERTK) does the source give for `C[C@@H](CC(F)(F)F)Nc1ncc2c(O[C@H]3C[C@H](N4CCOCC4)C3)ncc([C@H]3CC[C@H](O)CC3)c2n1` [Compound 422] here?
Answer: ≤ 100 nM

Question: What about the “Mer/Flt3 ratio (FLT3 IC50/Mer IC50)” value (MERTK) of the same compound?
Answer: +++ (a ratio of >100)

Question: What about the IC50 (AXL) of the same compound?
Answer: ≤ 100 nM

Question: `C[C@@H](CC(F)(F)F)Nc1ncc2c(O[C@H]3C[C@@H](O)C3)ncc([C@H]3CC[C@](C)(O)CC3)c2n1` [Compound 423] was tested. Which IC50 (MERTK) did it give?
Answer: ≤ 100 nM

Question: And the “Mer/Flt3 ratio (FLT3 IC50/Mer IC50)” value (MERTK)?
Answer: +++ (a ratio of >100)

Question: And the IC50 (AXL)?
Answer: ≤ 100 nM

Question: With `C[C@@H](CC(F)(F)F)Nc1ncc2c(O[C@H]3C[C@@H](O)C3)ncc([C@H]3CC[C@@](C)(O)CC3)c2n1` [Compound 424] as the compound, how does the IC50 (MERTK) read?
Answer: ≤ 100 nM

Question: What about the “Mer/Flt3 ratio (FLT3 IC50/Mer IC50)” value (MERTK) of the same compound?
Answer: +++ (a ratio of >100)

Question: What about the IC50 (AXL) of the same compound?
Answer: ≤ 100 nM

Question: What does the source list for `COC[C@H](C)Nc1ncc2c(O[C@H]3C[C@@H](O)C3)ncc(-c3ccnnc3)c2n1` [Compound 425]?
Answer: IC50 (MERTK): 100 to 1000 nM; Mer/Flt3 ratio (FLT3 IC50/Mer IC50) (MERTK): ++ (a ratio of between 10 and 100); IC50 (AXL): 1000 to 10000 nM

Question: With `COC[C@H](C)Nc1ncc2c(O[C@H]3C[C@@H](O)C3)ncc([C@H]3CC[C@](C)(O)CC3)c2n1` [Compound 426] as the compound, how does the IC50 (MERTK) read?
Answer: ≤ 100 nM

Question: What about the “Mer/Flt3 ratio (FLT3 IC50/Mer IC50)” value (MERTK) of the same compound?
Answer: +++ (a ratio of >100)

Question: What about the IC50 (AXL) of the same compound?
Answer: 100 to 1000 nM

Question: Which IC50 (MERTK) does the source give for `COC[C@H](C)Nc1ncc2c(O[C@H]3C[C@@H](O)C3)ncc([C@H]3CC[C@@](C)(O)CC3)c2n1` [Compound 427] here?
Answer: ≤ 100 nM

Question: What about the “Mer/Flt3 ratio (FLT3 IC50/Mer IC50)” value (MERTK) of the same compound?
Answer: +++ (a ratio of >100)

Question: And the IC50 (AXL)?
Answer: 100 to 1000 nM

Question: For `C[C@@H](CC(F)F)Nc1ncc2c(O[C@H]3C[C@@H](O)C3)ncc([C@H]3CC[C@H](O)CC3)c2n1` [Compound 428], which IC50 (MERTK) is on record?
Answer: ≤ 100 nM

Question: What about the “Mer/Flt3 ratio (FLT3 IC50/Mer IC50)” value (MERTK) of the same compound?
Answer: +++ (a ratio of >100)

Question: And the IC50 (AXL)?
Answer: ≤ 100 nM

Question: What does the source list for `C[C@@H](CC(F)(F)F)Nc1ncc2c(O[C@H]3C[C@@](C)(O)C3)ncc([C@H]3CC[C@H](O)CC3)c2n1` [Compound 429]?
Answer: IC50 (MERTK): ≤ 100 nM; Mer/Flt3 ratio (FLT3 IC50/Mer IC50) (MERTK): +++ (a ratio of >100); IC50 (AXL): ≤ 100 nM
